#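 Five concentrations, 48 hours, 96-well plates. Abbreviation: GI50, concentration required for 50% inhibition of growth. TGI: concentration producing complete growth inhibition.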
# Assays:
# Assay in all cases: NCI tumour cell line growth inhibition, 48 h
# M14 melanoma = system: M14 melanoma
# NCI-H23 lung = system: NCI-H23 lung
# SK-MEL-28 melanoma = system: SK-MEL-28 melanoma
# SK-MEL-5 melanoma = system: SK-MEL-5 melanoma
# T-47D breast = system: T-47D breast
# HOP-92 NSCLC = system: HOP-92 NSCLC
# NCI-H522 lung = system: NCI-H522 lung
# HCT-15 colon = system: HCT-15 colon
# KM12 colon = system: KM12 colon
# UACC-257 melanoma = system: UACC-257 melanoma
# BT-549 breast = system: BT-549 breast
# A498 renal = system: A498 renal
# MDA-MB-231 breast = system: MDA-MB-231 breast
# SK-OV-3 ovarian = system: SK-OV-3 ovarian
# NCI-H460 lung = system: NCI-H460 lung
# K-562 leukemia = system: K-562 leukemia
# RPMI-8226 leukemia = system: RPMI-8226 leukemia
# COLO 205 colon = system: COLO 205 colon
# OVCAR-4 ovarian = system: OVCAR-4 ovarian
# HS 578T breast = system: HS 578T breast
# DU-145 prostate = system: DU-145 prostate
# TK-10 renal = system: TK-10 renal
# OVCAR-5 ovarian = system: OVCAR-5 ovarian
# NCI/ADR-RES ovarian = system: NCI/ADR-RES ovarian
# SW-620 colon = system: SW-620 colon
# MDA-MB-435 = system: MDA-MB-435
# CCRF-CEM leukemia = system: CCRF-CEM leukemia
# NCI-H226 lung = system: NCI-H226 lung
# RXF 393 renal = system: RXF 393 renal
# HCT-116 colon = system: HCT-116 colon
# HCC-2998 colon = system: HCC-2998 colon
# CAKI-1 renal = system: CAKI-1 renal
# SNB-19 CNS = system: SNB-19 CNS
# SF-268 CNS = system: SF-268 CNS
# OVCAR-3 ovarian = system: OVCAR-3 ovarian
# U251 CNS = system: U251 CNS
# SN12C renal = system: SN12C renal
# MCF7 breast = system: MCF7 breast
# SR leukemia = system: SR leukemia
# SF-539 CNS = system: SF-539 CNS
# UACC-62 melanoma = system: UACC-62 melanoma
# LOX IMVI melanoma = system: LOX IMVI melanoma
# A549 NSCLC = system: A549 NSCLC
# EKVX NSCLC = system: EKVX NSCLC
# OVCAR-8 ovarian = system: OVCAR-8 ovarian
# SK-MEL-2 melanoma = system: SK-MEL-2 melanoma
# MOLT-4 leukemia = system: MOLT-4 leukemia
# MALME-3M melanoma = system: MALME-3M melanoma
# HOP-62 NSCLC = system: HOP-62 NSCLC
# SNB-75 CNS = system: SNB-75 CNS
# SF-295 CNS = system: SF-295 CNS
smiles,measurement,setting,value
COc1ccc(C(=O)/C=C/c2cccc([N+](=O)[O-])c2)c(OC)c1,GI50,M14 melanoma,1620 nM
same,TGI,M14 melanoma,> 50000 nM
same,GI50,NCI-H23 lung,2610 nM
same,TGI,NCI-H23 lung,> 50000 nM
same,GI50,SK-MEL-28 melanoma,4750 nM
same,TGI,SK-MEL-28 melanoma,> 50000 nM
same,GI50,SK-MEL-5 melanoma,2370 nM
same,TGI,SK-MEL-5 melanoma,> 50000 nM
same,GI50,T-47D breast,1930 nM
same,TGI,T-47D breast,> 50000 nM
same,GI50,HOP-92 NSCLC,3920 nM
same,TGI,HOP-92 NSCLC,> 50000 nM
same,GI50,NCI-H522 lung,1600 nM
same,TGI,NCI-H522 lung,> 50000 nM
same,GI50,HCT-15 colon,916 nM
same,TGI,HCT-15 colon,2610 nM
same,GI50,KM12 colon,1610 nM
same,TGI,KM12 colon,7650 nM
same,GI50,UACC-257 melanoma,> 50000 nM
same,TGI,UACC-257 melanoma,> 50000 nM
same,GI50,BT-549 breast,1120 nM
same,TGI,BT-549 breast,2990 nM
same,GI50,A498 renal,11100 nM
same,TGI,A498 renal,> 50000 nM
same,GI50,MDA-MB-231 breast,1920 nM
same,TGI,MDA-MB-231 breast,> 50000 nM
same,GI50,SK-OV-3 ovarian,18900 nM
same,TGI,SK-OV-3 ovarian,> 50000 nM
same,GI50,NCI-H460 lung,1270 nM
same,TGI,NCI-H460 lung,3310 nM
same,GI50,K-562 leukemia,999 nM
same,TGI,K-562 leukemia,3080 nM
same,GI50,RPMI-8226 leukemia,1090 nM
same,TGI,RPMI-8226 leukemia,3140 nM
same,GI50,COLO 205 colon,6850 nM
same,TGI,COLO 205 colon,> 50000 nM
same,GI50,OVCAR-4 ovarian,2110 nM
same,TGI,OVCAR-4 ovarian,> 50000 nM
same,GI50,HS 578T breast,3850 nM
same,TGI,HS 578T breast,> 50000 nM
same,GI50,DU-145 prostate,1750 nM
same,TGI,DU-145 prostate,> 50000 nM
same,GI50,TK-10 renal,1590 nM
same,TGI,TK-10 renal,> 50000 nM
same,GI50,OVCAR-5 ovarian,1560 nM
same,TGI,OVCAR-5 ovarian,> 50000 nM
same,GI50,NCI/ADR-RES ovarian,1530 nM
same,TGI,NCI/ADR-RES ovarian,> 50000 nM
same,GI50,SW-620 colon,1200 nM
same,TGI,SW-620 colon,2540 nM
same,GI50,MDA-MB-435,1760 nM
same,TGI,MDA-MB-435,> 50000 nM
same,GI50,CCRF-CEM leukemia,1390 nM
same,TGI,CCRF-CEM leukemia,4790 nM
same,GI50,NCI-H226 lung,1650 nM
same,TGI,NCI-H226 lung,7770 nM
same,GI50,RXF 393 renal,1130 nM
same,TGI,RXF 393 renal,2360 nM
same,GI50,HCT-116 colon,767 nM
same,TGI,HCT-116 colon,1680 nM
same,GI50,HCC-2998 colon,2270 nM
same,TGI,HCC-2998 colon,> 50000 nM
same,GI50,CAKI-1 renal,1980 nM
same,TGI,CAKI-1 renal,> 50000 nM
same,GI50,SNB-19 CNS,1460 nM
same,TGI,SNB-19 CNS,4370 nM
same,GI50,SF-268 CNS,1620 nM
same,TGI,SF-268 CNS,> 50000 nM
same,GI50,OVCAR-3 ovarian,1720 nM
same,TGI,OVCAR-3 ovarian,> 50000 nM
same,GI50,U251 CNS,881 nM
same,TGI,U251 CNS,1720 nM
same,GI50,SN12C renal,1180 nM
same,TGI,SN12C renal,2990 nM
same,GI50,MCF7 breast,1370 nM
same,TGI,MCF7 breast,> 50000 nM
same,GI50,SR leukemia,678 nM
same,TGI,SR leukemia,4020 nM
same,GI50,SF-539 CNS,1180 nM
same,TGI,SF-539 CNS,3090 nM
same,GI50,UACC-62 melanoma,1140 nM
same,TGI,UACC-62 melanoma,2790 nM
same,GI50,LOX IMVI melanoma,895 nM
same,TGI,LOX IMVI melanoma,1940 nM
same,GI50,A549 NSCLC,2560 nM
same,TGI,A549 NSCLC,> 50000 nM
same,GI50,EKVX NSCLC,> 50000 nM
same,TGI,EKVX NSCLC,> 50000 nM
same,GI50,OVCAR-8 ovarian,1780 nM
same,TGI,OVCAR-8 ovarian,> 50000 nM
same,GI50,SK-MEL-2 melanoma,12400 nM
same,TGI,SK-MEL-2 melanoma,> 50000 nM
same,GI50,MOLT-4 leukemia,1170 nM
same,TGI,MOLT-4 leukemia,3880 nM
same,GI50,MALME-3M melanoma,3560 nM
same,TGI,MALME-3M melanoma,> 50000 nM
same,GI50,HOP-62 NSCLC,1800 nM
same,TGI,HOP-62 NSCLC,> 50000 nM
same,GI50,SNB-75 CNS,1610 nM
same,TGI,SNB-75 CNS,> 50000 nM
same,GI50,SF-295 CNS,2390 nM
same,TGI,SF-295 CNS,> 50000 nM
